Reference: ChEMBL document CHEMBL5046234, “Discovery of novel TrkA allosteric inhibitors: Structure-based virtual screening, biological evaluation and preliminary SAR studies” (Eur J Med Chem, 2022)
pIC50: −log10 of the molar value.

Tests used:
BaF3 [1] = assay: Antiproliferative activity against mouse BaF3 cells expressing CD74 fused TRKA assessed as cell growth inhibition incubated for 72 hrs by CCK8 assay; format: functional, cell-based; details: BaF3, 72 h
[2] = target: BDNF/NT-3 growth factors receptor (Homo sapiens, UniProt Q16620); assay: Inhibition of TRKB (unknown origin) by PathHunter Enzyme Fragment Complementation assay
Chain of BDNF/NT-3 growth factors receptor (Q16620 whole entry, the tested form may be a part): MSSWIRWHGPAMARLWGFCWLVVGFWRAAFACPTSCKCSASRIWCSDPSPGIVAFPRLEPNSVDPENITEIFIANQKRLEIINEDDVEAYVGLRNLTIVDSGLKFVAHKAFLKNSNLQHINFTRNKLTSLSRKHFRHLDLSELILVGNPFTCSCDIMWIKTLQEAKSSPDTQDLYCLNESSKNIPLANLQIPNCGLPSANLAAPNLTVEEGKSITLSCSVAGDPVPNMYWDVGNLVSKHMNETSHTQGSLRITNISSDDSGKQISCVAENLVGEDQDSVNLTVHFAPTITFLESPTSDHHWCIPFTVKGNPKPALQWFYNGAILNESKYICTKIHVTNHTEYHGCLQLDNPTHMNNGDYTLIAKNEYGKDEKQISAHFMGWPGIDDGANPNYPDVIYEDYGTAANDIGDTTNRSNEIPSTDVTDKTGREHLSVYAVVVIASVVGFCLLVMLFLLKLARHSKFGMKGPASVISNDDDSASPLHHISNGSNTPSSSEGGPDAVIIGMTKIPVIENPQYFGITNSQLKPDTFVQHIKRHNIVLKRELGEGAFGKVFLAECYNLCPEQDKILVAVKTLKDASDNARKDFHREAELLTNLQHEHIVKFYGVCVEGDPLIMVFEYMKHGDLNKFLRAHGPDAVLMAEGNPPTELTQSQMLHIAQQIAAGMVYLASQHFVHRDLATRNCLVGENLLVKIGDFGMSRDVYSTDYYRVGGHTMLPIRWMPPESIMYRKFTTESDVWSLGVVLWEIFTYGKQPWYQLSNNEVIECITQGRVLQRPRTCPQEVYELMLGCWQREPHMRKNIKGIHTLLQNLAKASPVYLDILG

[3] = target: High affinity nerve growth factor receptor (Homo sapiens) (UniProt P04629); assay: Inhibition of CD74 fused TRKA (unknown origin) autophosphorylation expressed in mouse BaF3 cells by western blot analysis; format: cell-based; details: dose 0.08-50 µM
Chain of High affinity nerve growth factor receptor (Homo sapiens) (P04629 33-796 limits assumed): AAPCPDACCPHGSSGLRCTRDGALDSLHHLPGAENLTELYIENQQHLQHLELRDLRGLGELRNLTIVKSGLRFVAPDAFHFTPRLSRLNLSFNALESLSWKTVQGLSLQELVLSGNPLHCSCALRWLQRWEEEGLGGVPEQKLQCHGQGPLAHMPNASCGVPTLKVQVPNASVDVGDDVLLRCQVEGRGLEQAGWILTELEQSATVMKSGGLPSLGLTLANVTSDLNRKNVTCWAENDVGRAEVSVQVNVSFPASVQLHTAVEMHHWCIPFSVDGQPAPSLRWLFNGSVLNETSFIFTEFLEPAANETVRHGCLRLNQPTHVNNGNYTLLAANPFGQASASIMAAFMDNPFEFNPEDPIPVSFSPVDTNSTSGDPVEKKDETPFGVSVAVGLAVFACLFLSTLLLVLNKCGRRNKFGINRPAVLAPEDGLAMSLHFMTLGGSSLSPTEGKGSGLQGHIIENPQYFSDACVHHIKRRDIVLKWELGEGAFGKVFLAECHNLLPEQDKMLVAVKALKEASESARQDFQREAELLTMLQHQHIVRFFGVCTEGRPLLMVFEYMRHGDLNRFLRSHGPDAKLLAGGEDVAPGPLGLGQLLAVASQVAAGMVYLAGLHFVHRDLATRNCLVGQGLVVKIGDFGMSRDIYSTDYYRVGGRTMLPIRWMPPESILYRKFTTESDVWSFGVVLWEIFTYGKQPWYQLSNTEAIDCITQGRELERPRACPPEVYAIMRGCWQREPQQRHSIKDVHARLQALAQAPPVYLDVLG

BaF3 [4] = assay: Antiproliferative activity against mouse BaF3 cells expressing MPRIP fused TRKA assessed as cell growth inhibition incubated for 72 hrs by CCK8 assay; format: functional, cell-based; details: BaF3, 72 h
[5] = target: High affinity nerve growth factor receptor (Homo sapiens) (UniProt P04629); assay: Inhibition of CD74 fused TRKA (unknown origin) expressed in mouse BaF3 cells assessed as inhibition of PLCgamma1 phosphorylation by western blot analysis; format: cell-based; details: dose 0.08-50 µM
[6] = target: High affinity nerve growth factor receptor (Homo sapiens) (UniProt P04629); assay: Inhibition of CD74 fused TRKA (unknown origin) expressed in mouse BaF3 cells assessed as inhibition of AKT phosphorylation by western blot analysis; format: cell-based; details: dose 0.08-50 µM
[7] = target: High affinity nerve growth factor receptor (Homo sapiens) (UniProt P04629); assay: Inhibition of CD74 fused TRKA (unknown origin) expressed in mouse BaF3 cells assessed as inhibition of ERK phosphorylation by western blot analysis; format: cell-based
BaF3 [8] = assay: Antiproliferative activity against mouse BaF3 cells assessed as cell growth inhibition incubated for 72 hrs by CCK8 assay; format: functional, cell-based; details: BaF3, 72 h
BaF3 [9] = assay: Antiproliferative activity against mouse BaF3 cells expressing QKI fused TRKB assessed as cell growth inhibition incubated for 72 hrs by CCK8 assay; format: functional, cell-based; details: BaF3, 72 h
BaF3 [10] = assay: Antiproliferative activity against mouse BaF3 cells expressing EML4 fused TRKC assessed as cell growth inhibition incubated for 72 hrs by CCK8 assay; format: functional, cell-based; details: BaF3, 72 h

For Cc1ccc(C(=O)Nc2ccc(N3CCCC3=O)nc2)cc1N1CCCC1=O, the pIC50 (BaF3 [1]) was 5.14.
CN1CCN(c2cc(-c3ccccc3)c(NC(=O)c3cc(N4CCCC4=O)c(Cl)cc3Cl)cn2)CC1 gave a pIC50 (BaF3 [1]) of less than 5.00.
Work on CN1CCN(c2ccc(NC(=O)c3cc(N4CCCC4=O)c(Cl)cc3Cl)cn2)CC1 yielded a pIC50 (BaF3 [1]) of 5.74.
Cc1ncc(NC(=O)NC2c3ccccc3-c3ccccc32)c(-c2ccccc2)n1 showed a pIC50 [2] of 4.09.
For Cc1ccc(C(=O)Nc2ccc(N3CCN(C)CC3)nc2)cc1N1CCCC1=O, the pIC50 (BaF3 [1]) was 5.70.
Cc1ccc(C(=O)Nc2ccc(N3CCN(C4CCCC4)C3=O)nc2)cc1N1CCCC1=O was tested, and the inhibition [3] was “Dose-Dependent Effect”, the pIC50 (BaF3 [4]) was 5.48 and the inhibition [5] was “Dose-Dependent Effect”. For the same molecule, the inhibition [6] was “Dose-Dependent Effect”, the inhibition [7] was “Dose-Dependent Effect” and the pIC50 (BaF3 [1]) was 5.54. The pIC50 (BaF3 [8]) was less than 5.00, the pIC50 (BaF3 [9]) was 5.21 and the pIC50 (BaF3 [10]) was less than 5.00.
CN1CCN(c2ccc(NC(=O)c3ccc(Cl)c(N4CCCC4=O)c3)cn2)CC1 gave a pIC50 (BaF3 [1]) of 5.81.
